PMC11679778, “Jeju Citrus (Citrus unshiu) Leaf Extract and Hesperidin Inhibit Small Intestinal α-Glucosidase Activities In Vitro and Postprandial Hyperglycemia in Animal Model” (International Journal of Molecular Sciences, 2024)

Legend:
[1] = biological target: T1, maltase (rat small intestinal); test: liberated glucose by glucose oxidase method; assay type: biochemical; conditions: crude rat intestinal acetone powder supernatant; maltose substrate; 0.1 M phosphate pH 7.0
T1 construct: gene Mgam; native; crude supernatant of commercial rat intestinal acetone powder (Sigma-Aldrich), not purified; maltose as substrate
Excerpt: liberated glucose by glucose oxidase method on maltase (rat small intestinal)

[2] = biological target: T2, rat small intestinal α-glucosidase; test: pNPG hydrolysis, absorbance […] nm; assay type: biochemical; conditions: crude rat intestinal acetone powder supernatant; pNPG substrate; 0.1 M phosphate pH 6.9, 37 °C
T2 construct: gene Mgam; native; crude supernatant of commercial rat intestinal acetone powder (Sigma-Aldrich), not purified; pNPG as substrate

- HP [1]: 1.04 ± 0.03 mg/mL
- HP [2]: 0.99 ± 0.14 mg/mL
SMILES: COc1ccc([C@@H]2CC(=O)c3c(O)cc(O[C@@H]4O[C@H](CO[C@@H]5O[C@@H](C)[C@H](O)[C@@H](O)[C@H]5O)[C@@H](O)[C@H](O)[C@H]4O)cc3O2)cc1O [hesperidin]
